Results from patent US10004701B2, “Methods and compositions for treating infection” (UNIVERSITY OF ROCHESTER, priority 2012, dated 2018).
Counter-ions that a name gives are not always drawn. Like-named read-outs stand apart in the source and are kept apart here.

Columns and labels:
Assay in all cases: AK assay 384-well format, Prestwick library screening
P. aeruginosa = type: cell-based, Pseudomonas aeruginosa; conditions: 50 μM final drug concentration; for fold induction at 50 µM: Pseudomonas aeruginosa, 3 h
E. cloacae = type: cell-based, Enterobacter cloacae; conditions: 50 μM final drug concentration; for fold induction at 50 µM: Enterobacter cloacae, 3 h
E. coli = type: cell-based, Escherichia coli; conditions: 50 μM final drug concentration; for fold induction at 50 µM: Escherichia coli, 3 h
[1] = test system: A. baumannii strain 98-37-09; type: cell-based, Acinetobacter baumannii; conditions: 50 μM final drug concentration; for fold induction at 50 µM: Acinetobacter baumannii, 983709, 3 h
K. pneumoniae = type: cell-based, Klebsiella pneumoniae; conditions: 50 μM final drug concentration; for fold induction at 50 µM: Klebsiella pneumoniae, 3 h
E. faecium = type: cell-based, Enterococcus faecium; conditions: 50 μM final drug concentration; for fold induction at 50 µM: Enterococcus faecium, 3 h
[2] = test system: S. aureus strain USA300-0114; type: cell-based, Staphylococcus aureus; conditions: 50 μM final drug concentration; for fold induction at 50 µM: Staphylococcus aureus, USA300, 3 h

SMILES: C[C@H]1CC[C@]2(NC1)O[C@H]1C[C@H]3[C@@H]4CC[C@H]5C[C@@H](O)CC[C@]5(C)[C@H]4CC[C@]3(C)[C@H]1[C@@H]2C [Tomatidine]
- fold induction at 50 µM (P. aeruginosa; planktonic P. aeruginosa, […], read-out: AK-based Prestwick Library Screening Results, P. aeruginosa (increase in extracellular AK activity)): 0.7
- fold induction at 50 µM (E. cloacae; planktonic E. cloacae, […], read-out: AK-based Prestwick Library Screening Results, E. cloacae (increase in extracellular AK activity)): 1
- fold induction at 50 µM (E. coli; planktonic E. coli, […], read-out: AK-based Prestwick Library Screening Results, E. coli (increase in extracellular AK activity)): 0.7
- fold induction at 50 µM ([1]; planktonic A. baumannii, […], read-out: AK-based Prestwick Library Screening Results, A. baumannii (increase in extracellular AK activity)): 0.7
- fold induction at 50 µM (K. pneumoniae; planktonic K. pneumoniae, […], read-out: AK-based Prestwick Library Screening Results, K. pneumoniae (increase in extracellular AK activity)): 0.6
- fold induction at 50 µM (E. faecium; planktonic E. faecium, […], read-out: AK-based Prestwick Library Screening Results, E. faecium (increase in extracellular AK activity)): 1.2
- fold induction at 50 µM ([2]; planktonic S. aureus, […], read-out: AK-based Prestwick Library Screening Results, S. aureus (increase in extracellular AK activity)): 0.5

SMILES: CC[N+]1(C)[C@@H]2CC[C@H]1CC(OC(=O)[C@@H]1CC[C@@](C(=O)OC3C[C@H]4CC[C@@H](C3)[N+]4(C)CC)(c3ccccc3)c3ccccc31)C2.[Cl-].[Cl-] (stereo partly drawn) [beta-Belladonnine dichloroethylate]
- AK-based Prestwick Library Screening Results, P. aeruginosa (fold increase in extracellular AK activity) (P. aeruginosa; planktonic, […]): 1.2
- AK-based Prestwick Library Screening Results, E. cloacae (fold increase in extracellular AK activity) (E. cloacae; planktonic, […]): 1.3
- AK-based Prestwick Library Screening Results, E. coli (fold increase in extracellular AK activity) (E. coli; planktonic, […]): 1.2
- AK-based Prestwick Library Screening Results, A. baumannii (fold increase in extracellular AK activity) ([1]; planktonic, […]): 1.0
- AK-based Prestwick Library Screening Results, K. pneumoniae (fold increase in extracellular AK activity) (K. pneumoniae; planktonic, […]): 0.9
- AK-based Prestwick Library Screening Results, E. faecium (fold increase in extracellular AK activity) (E. faecium; planktonic, […]): 1.0
- AK-based Prestwick Library Screening Results, S. aureus (fold increase in extracellular AK activity) ([2]; planktonic, […]): 1.3

SMILES: CNC(=C[N+](=O)[O-])NCCSCc1ccc(CN(C)C)o1 [Ranitidine hydrochloride]
- fold induction at 50 µM (P. aeruginosa; planktonic P. aeruginosa, 384-well, cutoff for positive-scoring molecules 3-fold increase, read-out: AK-based Prestwick Library Screening Results: P. aeruginosa (increase in extracellular AK activity)): 1.3
- fold induction at 50 µM (E. cloacae; planktonic E. cloacae, 384-well, cutoff for positive-scoring molecules 3-fold increase, read-out: AK-based Prestwick Library Screening Results: E. cloacae (increase in extracellular AK activity)): 1.5
- fold induction at 50 µM (E. coli; planktonic E. coli, 384-well, cutoff for positive-scoring molecules 3-fold increase, read-out: AK-based Prestwick Library Screening Results: E. coli (increase in extracellular AK activity)): 1.4
- fold induction at 50 µM ([1]; planktonic A. baumannii, 384-well, cutoff for positive-scoring molecules 3-fold increase, read-out: AK-based Prestwick Library Screening Results: A. baumannii (increase in extracellular AK activity)): 1.1
- fold induction at 50 µM (K. pneumoniae; planktonic K. pneumoniae, 384-well, cutoff for positive-scoring molecules 3-fold increase, read-out: AK-based Prestwick Library Screening Results: K. pneumoniae (increase in extracellular AK activity)): 0.9
- fold induction at 50 µM (E. faecium; planktonic E. faecium, 384-well, cutoff for positive-scoring molecules 3-fold increase, read-out: AK-based Prestwick Library Screening Results: E. faecium (increase in extracellular AK activity)): 1.1
- fold induction at 50 µM ([2]; planktonic S. aureus, 384-well, cutoff for positive-scoring molecules 3-fold increase, read-out: AK-based Prestwick Library Screening Results: S. aureus (increase in extracellular AK activity)): 1.2

SMILES: CC(=O)OC(C)C[N+](C)(C)C (stereo not shown) [Methacholine chloride]
- fold induction at 50 µM (P. aeruginosa; planktonic, cutoff for positive-scoring molecules 3-fold increase, read-out: AK-based Prestwick Library Screening Results, P. aeruginosa (fold increase in extracellular AK activity)): 0.9
- fold induction at 50 µM (E. cloacae; planktonic, cutoff for positive-scoring molecules 3-fold increase, read-out: AK-based Prestwick Library Screening Results, E. cloacae (fold increase in extracellular AK activity)): 1.3
- fold induction at 50 µM (E. coli; planktonic, cutoff for positive-scoring molecules 3-fold increase, read-out: AK-based Prestwick Library Screening Results, E. coli (fold increase in extracellular AK activity)): 0.9
- fold induction at 50 µM ([1]; planktonic, cutoff for positive-scoring molecules 3-fold increase, read-out: AK-based Prestwick Library Screening Results, A. baumannii (fold increase in extracellular AK activity)): 0.8
- fold induction at 50 µM (K. pneumoniae; planktonic, cutoff for positive-scoring molecules 3-fold increase, read-out: AK-based Prestwick Library Screening Results, K. pneumoniae (fold increase in extracellular AK activity)): 0.7
- fold induction at 50 µM (E. faecium; planktonic, cutoff for positive-scoring molecules 3-fold increase, read-out: AK-based Prestwick Library Screening Results, E. faecium (fold increase in extracellular AK activity)): 0.9
- fold induction at 50 µM ([2]; planktonic, cutoff for positive-scoring molecules 3-fold increase, read-out: AK-based Prestwick Library Screening Results, S. aureus (fold increase in extracellular AK activity)): 0.7

SMILES: CNC(=O)Oc1ccc2c(c1)[C@]1(C)CCN(C)[C@@H]1N2C.CNC(=O)Oc1ccc2c(c1)[C@]1(C)CCN(C)[C@@H]1N2C.O=S(=O)(O)O [Eserine sulfate, physostigmine sulfate]
- AK-based Prestwick Library Screening Results, P. aeruginosa (increase in extracellular AK activity) (P. aeruginosa; planktonic P. aeruginosa, […]): 0.6
- AK-based Prestwick Library Screening Results, E. cloacae (increase in extracellular AK activity) (E. cloacae; planktonic E. cloacae, […]): 0.7
- AK-based Prestwick Library Screening Results, E. coli (increase in extracellular AK activity) (E. coli; planktonic E. coli, […]): 0.7
- AK-based Prestwick Library Screening Results, A. baumannii (increase in extracellular AK activity) ([1]; planktonic A. baumannii, […]): 0.5
- AK-based Prestwick Library Screening Results, K. pneumoniae (increase in extracellular AK activity) (K. pneumoniae; planktonic K. pneumoniae, […]): 0.5
- AK-based Prestwick Library Screening Results, E. faecium (increase in extracellular AK activity) (E. faecium; planktonic E. faecium, […]): 0.9
- AK-based Prestwick Library Screening Results, S. aureus (increase in extracellular AK activity) ([2]; planktonic S. aureus, […]): 0.4

SMILES: CN1CCN2c3ccccc3Cc3ccccc3C2C1 (stereo not shown) [Mianserine hydrochloride]
- fold induction at 50 µM (P. aeruginosa; 384-well format, cutoff for positive-scoring molecules 3-fold increase, read-out: AK-based Prestwick Library Screening Results, P. aeruginosa (increase in extracellular AK activity)): 0.8
- fold induction at 50 µM (E. cloacae; 384-well format, cutoff for positive-scoring molecules 3-fold increase, read-out: AK-based Prestwick Library Screening Results, E. cloacae (increase in extracellular AK activity)): 0.7
- fold induction at 50 µM (E. coli; 384-well format, cutoff for positive-scoring molecules 3-fold increase, read-out: AK-based Prestwick Library Screening Results, E. coli (increase in extracellular AK activity)): 0.7
- fold induction at 50 µM ([1]; 384-well format, cutoff for positive-scoring molecules 3-fold increase, read-out: AK-based Prestwick Library Screening Results, A. baumannii (increase in extracellular AK activity)): 0.8
- fold induction at 50 µM (K. pneumoniae; 384-well format, cutoff for positive-scoring molecules 3-fold increase, read-out: AK-based Prestwick Library Screening Results, K. pneumoniae (increase in extracellular AK activity)): 0.6
- fold induction at 50 µM (E. faecium; 384-well format, cutoff for positive-scoring molecules 3-fold increase, read-out: AK-based Prestwick Library Screening Results, E. faecium (increase in extracellular AK activity)): 0.9
- fold induction at 50 µM ([2]; 384-well format, cutoff for positive-scoring molecules 3-fold increase, read-out: AK-based Prestwick Library Screening Results, S. aureus (increase in extracellular AK activity)): 0.7

SMILES: CC(=O)O[C@]1(C(C)=O)CC[C@H]2[C@@H]3C=C(Cl)C4=CC(=O)[C@@H]5C[C@@H]5[C@]4(C)[C@H]3CC[C@@]21C [Cyproterone acetate]
- fold induction at 50 µM (P. aeruginosa; planktonic P. aeruginosa, positive cutoff 3-fold increase, read-out: AK-based Prestwick library screening result, P. aeruginosa (fold increase in extracellular AK activity)): 0.8
- fold induction at 50 µM (E. cloacae; planktonic E. cloacae, positive cutoff 3-fold increase, read-out: AK-based Prestwick library screening result, E. cloacae (fold increase in extracellular AK activity)): 1.4
- fold induction at 50 µM (E. coli; planktonic E. coli, positive cutoff 3-fold increase, read-out: AK-based Prestwick library screening result, E. coli (fold increase in extracellular AK activity)): 0.8
- fold induction at 50 µM ([1]; planktonic A. baumannii, positive cutoff 3-fold increase, read-out: AK-based Prestwick library screening result, A. baumannii (fold increase in extracellular AK activity)): 0.8
- fold induction at 50 µM (K. pneumoniae; planktonic K. pneumoniae, positive cutoff 3-fold increase, read-out: AK-based Prestwick library screening result, K. pneumoniae (fold increase in extracellular AK activity)): 0.7
- fold induction at 50 µM (E. faecium; planktonic E. faecium, positive cutoff 3-fold increase, read-out: AK-based Prestwick library screening result, E. faecium (fold increase in extracellular AK activity)): 1
- fold induction at 50 µM ([2]; planktonic S. aureus, positive cutoff 3-fold increase, read-out: AK-based Prestwick library screening result, S. aureus (fold increase in extracellular AK activity)): 0.6
